Results reported in patent US20200360531A1, “ANTIBODY DRUG CONJUGATES (ADCS) WITH NAMPT INHIBITORS” (Bayer Aktiengesellschaft, priority 2018, published 2020).
Several values for one entry are separate records, joined by “and”; a condition that tells them apart may be missing. Identical values can stand only once. Like-named read-outs stand apart in the source and are kept apart here.

What was measured:
[1] = system: U251 MG; test: Cell proliferation assay, Cell Titer Glo (CTG) method, U251 MG; type: cell-based
Procedure: (§1) Cell Proliferation Assay for Nampt-ADCs and Nampt-SMOLs
(§2) Cell Titer Glo (CTG) Method
(§3) To this end, 75 μL per well CTG solution (Promega, catalog #G755B and G756B) was added to cells in sister plates, incubated for 10 min, and luminescence was measured on a VICTOR V instrument (Perkin Elmer). After incubation for either 72 or 96 hrs (Table 1) in the presence of test compounds, 100 μl per well CTG solution was added to all test wells, incubated for 10 min and luminescence was measured on a VICTOR V instrument. […] The DRC software is a Biobook Spreadsheet that was developed by Bayer AG and Bayer Business Services on the IDBS E-Workbook Suite platform (IDBS: ID Business Solutions Ltd., Guildford, UK).

[2] = system: A549 C4.4a B4; test: Cell proliferation assay, Cell Titer Glo (CTG) method, A549 C4.4a B4; type: cell-based, human
Procedure: as §1, §2, §3

[3] = system: MDA-MB-453; test: Cell proliferation assay, Cell Titer Glo (CTG) method, MDA-MB-453; type: cell-based
Procedure: as §1, §2, §3

[4] = system: THP-1; test: Cell proliferation assay, Cell Titer Glo (CTG) method, THP-1; type: cell-based, human; conditions: 72 h
Procedure: as §1, §2, §3

[5] = target: T1, human NAMPT (Homo sapiens, UniProt P43490); test: NAMPT biochemical assay (hNAMPT IC50), cascade assay with NMNAT1 and NAD/NADH-Glo detection; conditions: Table 2; replicate values on separate lines
T1 construct: N-terminally His6-tagged recombinant full length human NAMPT; His6 (N); made in house; host or cells: E. coli
Excerpt: NAMPT Biochemical Assay (hNAMPT IC50)
Nicotinamide phosphoribosyltransferase (NAMPT) inhibitory activity of compounds of the present invention was quantified employing a cascade assay as described in the following paragraphs. The assay couples the conversion of nicotinamide (NAM) to nicotinamide mononucleotide (NMN) by NAMPT with the conversion of NMN to […] adenine dinucleotide (NAD^+) by nicotinamide mononucleotide adenylyltransferase 1 (NMNAT1) and the subsequent quantification of the generated NAD^+ by a commercial detection kit (NAD/NADH-Glo™ Assay from Promega, #G9072).
N-terminally His6-tagged recombinant full length human NAMPT and N-terminally His6-tagged recombinant full length human NMNAT1, both expressed in E. coli and purified via Ni-NTA-affinity chromatography and consecutive size exclusion chromatography, were used as enzymes.
For the assay 50 nl of a 100 fold concentrated solution of the test compound in DMSO was pipetted into a white low volume 384 well microtiter plate (Greiner Bio-One, Frickenhausen, Germany), 2.5 μl of a solution of NAMPT in aqueous NMNAT1-containing assay buffer [50 mM Tris/HCl pH 7.5, 12 mM MgCl2, 0.6 mM adenosine-tri-phosphate (ATP), 1 nM NMNAT1, 0.02% (w/v) bovine serum albumin (Sigma-Aldrich #P7906), 0.001% (v/v) Tween-20 (Sigma-Aldrich #P7949)] were added and the mixture was incubated for 15 min at 22° C. to allow pre-binding of the test compounds to the enzyme before the start of the enzyme reaction. Then the reaction was started by the addition of 2.5 μl of a solution of NAM (300 nM=>final conc. in the 5 μl assay volume is 150 nM, Sigma-Aldrich #^47865) and 5-phosphorylribose-1-pyrophosphate pentasodium salt (PRPP, 1.2 μM=>final conc. in the 5 μl assay volume is 0.6 μM, Sigma-Aldrich P8296) in assay buffer and the resulting mixture was incubated for a reaction time of 20 min at 22° C. The concentration of NAMPT was adjusted depending of the activity of the enzyme lot and was chosen appropriate to have the assay in the linear range, typical final concentration in the 5 μl assay volume was 0.16 nM.
The resulting mixture was incubated 2 h at 22° C. to allow a steady-state of the detection system. Subsequently the generated luminescence was measured in a suitable luminescence reader, e.g. a Viewlux™ (Perkin-Elmer), and taken as a measure for the generated NAD^+.

[6] = Table 3 (ADCs), 72 h, read-out: A549 C4.4a 72 h IC^50
[7] = Table 3 (ADCs), DSMZ cells, 72 h, read-out: MDA-MB-453 DSMZ 72 h IC^50
[8] = Homo sapiens, U-251, 72 h, Table 2
[9] = Homo sapiens, A549, 72 h, Table 2, read-out: A549 C4.4a B4 72 h IC50
[10] = Homo sapiens, MDA-MB-453, 72 h, Table 2, read-out: MDA-MB-453 72 h IC50
[11] = Table 2, 72 h, read-out: A549 C4.4a B4 72 h IC50

T1 sequence (P43490 whole entry): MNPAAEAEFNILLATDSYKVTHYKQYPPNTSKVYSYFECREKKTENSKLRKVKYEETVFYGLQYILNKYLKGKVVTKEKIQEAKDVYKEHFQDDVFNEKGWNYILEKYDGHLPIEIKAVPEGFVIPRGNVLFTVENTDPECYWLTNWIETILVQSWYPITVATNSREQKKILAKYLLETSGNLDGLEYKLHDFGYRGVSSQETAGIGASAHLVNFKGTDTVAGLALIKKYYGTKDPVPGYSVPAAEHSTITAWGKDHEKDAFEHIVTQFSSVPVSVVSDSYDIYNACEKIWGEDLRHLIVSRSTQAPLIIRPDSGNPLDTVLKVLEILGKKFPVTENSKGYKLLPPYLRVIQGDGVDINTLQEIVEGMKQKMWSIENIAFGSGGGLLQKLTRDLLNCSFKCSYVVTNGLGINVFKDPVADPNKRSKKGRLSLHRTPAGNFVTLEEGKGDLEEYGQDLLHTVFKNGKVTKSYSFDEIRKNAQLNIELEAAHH

**Q.** Which results are given for “2 or 3-{[(2R)-2-Amino-2-carboxyethyl]sulfanyl}-4-{[2-({6-[3-{4-[(1,3-dihydro-2H-pyrrolo[3,4-c]pyridine-2-carbonyl)amino]phenyl}-6-oxo-5-(quinolin-5-yl)-5,6-dihydropyridazin-1(4H)-yl]hexyl}amino)-2-oxoethyl]amino}-4-oxobutanoic Acid [Example 30M]”?
**A.** IC50 ([1]; Table 3 (ADCs), 72 h, read-out: U-251 72 h IC^50): > 300000 pM; IC50 [2, 6]: > 300000 pM; IC50 [3, 7]: 9960 pM; IC50 ([4]; Table 3 (ADCs), read-out: THP-1 72 h IC^50): 81100 pM

**Q.** For “2 or 3-{[(2R)-2-Amino-2-carboxyethyl]sulfanyl}-4-{[2-({6-[3-{4-[(1,3-dihydro-2H-pyrrolo[3,4-c]pyridine-2-carbonyl)amino]phenyl}-6-oxo-5-(quinolin-5-yl)pyridazin-1(6H)-yl]hexyl}amino)-2-oxoethyl]amino}-4-oxobutanoic Acid [Example 31M]”, which IC50 [5] is on record?
**A.** Its IC50 is 260 pM and 311 pM.

**Q.** For `O=C(Nc1ccc(C2=NNC(=O)C(c3cccc4ncccc34)(C(F)(F)F)C2)cc1)N1Cc2ccncc2C1` (racemic) [Example 14, N-{4-[6-oxo-5-(quinolin-5-yl)-5-(trifluoromethyl)-1,4,5,6-tetrahydropyridazin-3-yl]phenyl}-1,3-dihydro-2H-pyrrolo[3,4-c]pyridine-2-carboxamide], which IC50 [5] is on record?
**A.** Its IC50 is 317 pM and 387 pM.

**Q.** Which results are given for `O=C1NN=C(c2ccc(NC(=O)N3Cc4ccncc4C3)cc2)CC1c1cccc2ncccc12` (stereo not shown) [Example 1, N-{4-[6-Oxo-5-(quinolin-5-yl)-1,4,5,6-tetrahydropyridazin-3-yl]phenyl}-1,3-dihydro-2H-pyrrolo[3,4-c]pyridine-2-carboxamide]?
**A.** IC50 [5]: 1060 pM and 1210 pM and 1260 pM and 1390 pM; IC50 ([4]; Homo sapiens, THP-1, Table 2): < 3 pM

**Q.** How did the IC50 [5] turn out when `NCCCCN1N=C(c2ccc(NC(=O)N3Cc4ccncc4C3)cc2)CC(c2cccc3ncccc23)C1=O` (stereo not shown) [Example 2, N-{4-[1-(4-Aminobutyl)-6-oxo-5-(quinolin-5-yl)-1,4,5,6-tetrahydropyridazin-3-yl]phenyl}-1,3-dihydro-2H-pyrrolo[3,4-c]pyridine-2-carboxamide] was run?
**A.** Its IC50 is 350 pM and 365 pM.

**Q.** For `NCCCCCCN1N=C(c2ccc(NC(=O)N3Cc4ccncc4C3)cc2)CC(c2cccc3ncccc23)C1=O` (stereo not shown) [Example 3, N-{4-[1-(6-Aminohexyl)-6-oxo-5-(quinolin-5-yl)-1,4,5,6-tetrahydropyridazin-3-yl]phenyl}-1,3-dihydro-2H-pyrrolo[3,4-c]pyridine-2-carboxamide], which IC50 [5] is on record?
**A.** The IC50 was 207 pM and 214 pM.

**Q.** For `O=C(Nc1ccc(-c2cc(-c3cccc4ncccc34)c(=O)[nH]n2)cc1)N1Cc2ccncc2C1` [Example 4, N-{4-[6-Oxo-5-(quinolin-5-yl)-1,6-dihydropyridazin-3-yl]phenyl}-1,3-dihydro-2H-pyrrolo[3,4-c]pyridine-2-carboxamide], which IC50 [5] is on record?
**A.** The IC50 was 1160 pM and 1220 pM.

**Q.** What about the IC50 [1, 8] of the same compound?
**A.** Its IC50 is 146 pM.

**Q.** And the IC50 [2, 9]?
**A.** The IC50 was over 300000 pM.

**Q.** What about the IC50 ([4]; Homo sapiens, THP-1, Table 2) of the same compound?
**A.** The IC50 was 17.1 pM.

**Q.** With `NCCCCn1nc(-c2ccc(NC(=O)N3Cc4ccncc4C3)cc2)cc(-c2cccc3ncccc23)c1=O` [Example 5, N-{4-[1-(4-Aminobutyl)-6-oxo-5-(quinolin-5-yl)-1,6-dihydropyridazin-3-yl]phenyl}-1,3-dihydro-2H-pyrrolo[3,4-c]pyridine-2-carboxamide] as the compound, how does the IC50 [5] read?
**A.** The IC50 was 147 pM and 176 pM.

**Q.** What does the source list for `Cc1nnc(C2CC(c3ccc(NC(=O)N4Cc5ccncc5C4)cc3)=NN(CCCCCCN)C2=O)o1` (stereo not shown) [Example 11, N-{4-[1-(6-Aminohexyl)-5-(5-methyl-1,3,4-oxadiazol-2-yl)-6-oxo-1,4,5,6-tetrahydropyridazin-3-yl]phenyl}-1,3-dihydro-2H-pyrrolo[3,4-c]pyridine-2-carboxamide]?
**A.** IC50 [5]: 318 pM and 379 pM; IC50 [1, 8]: 2820 pM; IC50 [2, 9]: > 300000 pM; IC50 ([4]; Homo sapiens, THP-1, Table 2): < 3 pM

**Q.** With `O=C(Nc1ccc(C2=NNC(=O)[C@@](c3cccc4ncccc34)(C(F)(F)F)C2)cc1)N1Cc2ccncc2C1` [Example 12, N-{4-[(5R)-6-oxo-5-(quinolin-5-yl)-5-(trifluoromethyl)-1,4,5,6-tetrahydropyridazin-3-yl]phenyl}-1,3-dihydro-2H-pyrrolo[3,4-c]pyridine-2-carboxamide] as the compound, how does the IC50 [5] read?
**A.** The IC50 was 539 pM and 551 pM.

**Q.** What about the IC50 [1, 8] of the same compound?
**A.** The IC50 was under 30 pM.

**Q.** And the IC50 [2, 9]?
**A.** Its IC50 is 472 pM.

**Q.** And the IC50 ([4]; Homo sapiens, THP-1, Table 2)?
**A.** The IC50 was under 3 pM.

**Q.** `NCCCCCCN1N=C(c2ccc(NC(=O)N3Cc4ccncc4C3)cc2)CC(c2cccc3ncccc23)(C(F)(F)F)C1=O` (stereo not shown) [Example 15, N-{4-[1-(6-Aminohexyl)-6-oxo-5-(quinolin-5-yl)-5-(trifluoromethyl)-1,4,5,6-tetrahydropyridazin-3-yl]phenyl}-1,3-dihydro-2H-pyrrolo[3,4-c]pyridine-2-carboxamide] was tested. Which IC50 [5] did it give?
**A.** The IC50 was 309 pM and 363 pM.

**Q.** What about the IC50 [3, 10] of the same compound?
**A.** The IC50 was under 30 pM.

**Q.** How did the IC50 [5] turn out when `O=C(Nc1ccc(-c2cc(-c3ccc4[nH]ncc4c3)c(=O)n(CC(F)(F)F)n2)cc1)N1Cc2ccncc2C1` [Example 22, N-{4-[5-(1H-indazol-5-yl)-6-oxo-1-(2,2,2-trifluoroethyl)-1,6-dihydropyridazin-3-yl]phenyl}-1,3-dihydro-2H-pyrrolo[3,4-c]pyridine-2-carboxamide] was run?
**A.** Its IC50 is 111 pM and 144 pM.

**Q.** And the IC50 [2, 9]?
**A.** Its IC50 is 4880 pM.

**Q.** What about the IC50 [3, 10] of the same compound?
**A.** The IC50 was under 30 pM.

**Q.** Which results are given for `O=C(Nc1ccc(-c2cc(-c3cccc4[nH]cnc34)c(=O)[nH]n2)cc1)N1Cc2ccncc2C1` [Example 26, N-{4-[5-(1H-Benzimidazol-4-yl)-6-oxo-1,6-dihydropyridazin-3-yl]phenyl}-1,3-dihydro-2H-pyrrolo[3,4-c]pyridine-2-carboxamide]?
**A.** IC50 [5]: 167 pM and 207 pM; IC50 [2, 9]: 111000 pM; IC50 [3, 10]: < 30 pM

**Q.** How did the IC50 [5] turn out when `N[C@@H](CSC1CC(=O)N(CCCCCC(=O)NCCCCCCn2nc(-c3ccc(NC(=O)N4Cc5ccncc5C4)cc3)cc(-c3cccc4ncccc34)c2=O)C1=O)C(=O)O` (stereo partly drawn) [Example 29M, S-{1-[6-({6-[3-{4-[(1,3-Dihydro-2H-pyrrolo[3,4-c]pyridine-2-carbonyl)amino]phenyl}-6-oxo-5-(quinolin-5-yl)pyridazin-1(6H)-yl]hexyl}amino)-6-oxohexyl]-2,5-dioxopyrrolidin-3-yl}-L-cysteine] was run?
**A.** Its IC50 is 441 pM and 637 pM.

**Q.** With `NCCCCCCN1N=C(c2ccc(NC(=O)N3Cc4ccncc4C3)cc2)CC(c2ccc3cccnc3c2)C1=O` (stereo not shown) [Example 45, N-{4-[1-(6-Aminohexyl)-6-oxo-5-(quinolin-7-yl)-1,4,5,6-tetrahydropyridazin-3-yl]phenyl}-1,3-dihydro-2H-pyrrolo[3,4-c]pyridine-2-carboxamide hydrogen chloride] as the compound, how does the IC50 [5] read?
**A.** The IC50 was 223 pM and 241 pM and 277 pM and 343 pM.

**Q.** What about the IC50 [2, 9] of the same compound?
**A.** Its IC50 is 32000 pM.

**Q.** What about the IC50 [2, 11] of the same compound?
**A.** Its IC50 is 49700 pM.

**Q.** Which results are given for “N-[2 or 3-{[(2R)-2-amino-2-carboxyethyl]sulfanyl}-3-carboxypropanoyl]glycyl-N-{6-[3-{4-[(1,3-dihydro-2H-pyrrolo[3,4-c]pyridine-2-carbonyl)amino]phenyl}-6-oxo-5-(quinolin-5-yl)-5,6-dihydropyridazin-1(4H)-yl]hexyl}-N^6-(26-oxo-2,5,8,11,14,17,20,23-octaoxahexacosan-26-yl)-L-lysinamide [Example 36M]”?
**A.** IC50 [5]: 1030 pM and 1050 pM; IC50 [2, 11]: 299000 pM; IC50 ([3]; Table 2, 72 h, read-out: MDA-MB-453 72 h IC50): 18000 pM

**Q.** How did the IC50 [2, 6] turn out when “[(32S,39S)-39-carboxy-32-({6-[(5S)-3-{4-[(1,3-dihydro-2H-pyrrolo[3,4-c]pyridine-2-carbonyl)amino]phenyl}-6-oxo-5-(quinolin-5-yl)-5,6-dihydropyridazin-1(4H)-yl]hexyl}carbamoyl)-26,34,37-trioxo-2,5,8,11,14,17,20,23-octaoxa-27,33,36-triazanonatriacontan-39-yl]sulfanediyl [Example 36Db]” was run?
**A.** The IC50 was 3130 pM.

**Q.** And the IC50 [3, 7]?
**A.** The IC50 was 7240 pM.
